Results published in patent US20150018311A1, “THERAPEUTIC BORON-CONTAINING COMPOUNDS” (priority 2012, published 2015).

Legend:
[1] = test system: Candida albicans ATCC90028 (wild type); test: Filter paper disc antifungal assay on agar plates; type: cell-based; conditions: 5 mm disc, 37° C. 24 hours
Experimental: (§1) Compound 22 (the chloride salt) of table 1 was dissolved and the solution applied to a filter paper disc of diameter 5 mm. The filter paper discs were placed on plates containing the following strains of Candida albicans:
ATCC90028 (“wild type”, i.e. not resistant to nystatin or fluconazole)
(§2) The compound was applied at concentrations of 0.5, 1, 5, 10, 25 and 50 μg/ml. Nystatin and fluconazole at the same concentrations were applied in the same manner. […] All strains were tested at least three times.
(§3) Clearly, the higher the number, the greater the antifungal activity.

[2] = test system: Candida albicans MYA576 (resistant to nystatin); test: Filter paper disc antifungal assay on agar plates; type: cell-based; conditions: 5 mm disc, 37° C. 24 hours
Experimental: as §1
MYA576 (resistant to nystatin).
as §2, §3

[3] = test system: Mycobacterium tuberculosis (H37Rv); test: Growth in liquid media in presence of test compound; type: cell-based
[4] = test system: Escherichia coli (ATCC 25922); test: as above; type: cell-based
[5] = test system: Pseudomonas aeruginosa (ATCC 27853); test: as above; type: cell-based
[6] = test system: Staphylococcus aureus (ATCC 25923); test: as above; type: cell-based
[7] = test system: E. faecalis; test: as above; type: cell-based
Experimental: The strains were grown at 37° C. and after suitable cell concentrations had been reached, 100 μL of each cell suspension was added to a tube with growth media and test compound. Cultivation of the bacteria was then carried out in the presence of each test compound at 37° C. and the tubes examined for visible growth. The compounds were tested at concentrations of either 500 mg/l, 50 mg/l or 5 mg/l. This assay was repeated twice.
Some compounds were only tested against some test organisms. It will be appreciated that the charge of these molecules will depend on the environment, some of the Examples are shown with a suitable counter ion, some without.

[8] = test system: Candida albicans (ATCC 90028); test: as above; type: cell-based
[9] = test system: Streptococcus pyogenes (ATCC 19615); test: as above; type: cell-based
[10] = test system: M. tuberculosis; test: Growth on solid media in presence of test compound; type: cell-based, Mycobacterium tuberculosis; conditions: result on solid media
[11] = test system: Candida albicans ATCC38247 (resistant to fluconazole); test: Filter paper disc antifungal assay on agar plates; type: cell-based; conditions: 5 mm disc, 37° C. 24 hours
Experimental: as §1
ATCC38247 (resistant to fluconazole)
as §2, §3

[12] = test system: Candida albicans; test: Filter paper disc antifungal assay, Candida albicans strains overall; type: cell-based
Experimental: as §1, §2, §3

Row | SMILES | diameter of the area which did not show any Candida growth ([1]; ATCC90028, 0.5 μg/ml) | diameter of the area which did not show any Candida growth ([1]; ATCC90028, 1 μg/ml) | diameter of the area which did not show any Candida growth ([1]; ATCC90028, 5 μg/ml) | diameter of the area which did not show any Candida growth ([1]; ATCC90028, 10 μg/ml) | diameter of the area which did not show any Candida growth ([1]; ATCC90028, 25 μg/ml) | diameter of the area which did not show any Candida growth ([1]; ATCC90028, 50 μg/ml) | Growth in the presence of test compound, M. tuberculosis ([3]; 5 mg/L) | Growth in the presence of test compound, M. tuberculosis ([3]; 50 mg/L) | Growth in the presence of test compound, M. tuberculosis ([3]; 500 mg/L) | Growth in the presence of test compound, E. coli ([4]; 5 mg/L) | Growth in the presence of test compound, E. coli ([4]; 50 mg/L) | Growth in the presence of test compound, E. coli ([4]; 500 mg/L) | Growth in the presence of test compound, P. aeruginosa ([5]; 5 mg/L) | Growth in the presence of test compound, P. aeruginosa ([5]; 50 mg/L) | Growth in the presence of test compound, P. aeruginosa ([5]; 500 mg/L) | Growth in the presence of test compound, S. aureus ([6]; 5 mg/L) | Growth in the presence of test compound, S. aureus ([6]; 50 mg/L) | Growth in the presence of test compound, S. aureus ([6]; 500 mg/L) | Growth in the presence of test compound, C. albicans ([8]; 5 mg/L) | Growth in the presence of test compound, C. albicans ([8]; 50 mg/L) | other results
1 | C[C@@H]1[C@H](O)[C@@H](C)/C=C/C=C/CC/C=C/C=C/C=C/C=C/C(O[C@H]2O[C@H](C)[C@@H](O)[C@H](N)[C@@H]2O)CC2O[C@](O)(CC(O)C(O)CCC(O)CC(O)CC(O)CC(=O)O[C@H]1C)CC(O)C2C(=O)O (stereo partly shown) [Nystatin, reference compound] | 6.25 millimeters | 7.25 millimeters | 9.25 millimeters | 14.75 millimeters | 19.25 millimeters | 20.25 millimeters |  |  |  |  |  |  |  |  |  |  |  |  |  |  | diameter of the area which did not show any Candida growth ([2]; MYA576, 0.5 μg/ml): 5 millimeters; diameter of the area which did not show any Candida growth ([2]; MYA576, 1 μg/ml): 5 millimeters; diameter of the area which did not show any Candida growth ([2]; MYA576, 5 μg/ml): 5 millimeters; diameter of the area which did not show any Candida growth ([2]; MYA576, 10 μg/ml): 6.17 millimeters; diameter of the area which did not show any Candida growth ([2]; MYA576, 25 μg/ml): 7.33 millimeters; diameter of the area which did not show any Candida growth ([2]; MYA576, 50 μg/ml): 9 millimeters
2 | CC1(C)C2CC3OB(CC(Cc4ccccc4)NC(=O)C(N)CCCCN)OC3(C)C1C2 (stereo not shown) [Compound 1] |  |  |  |  |  |  | − | − | − | + | + | − | + | + | ± | + | + | − |  |  | Growth in the presence of test compound, E. faecalis ([7]; 5 mg/L): +; Growth in the presence of test compound, E. faecalis ([7]; 50 mg/L): +; Growth in the presence of test compound, E. faecalis ([7]; 500 mg/L): −
3 | CC1(C)C2CC3OB([C@@H](CNC(=O)[C@@H](N)Cc4ccccc4)Cc4ccc5ccccc5c4)O[C@]3(C)C1C2.Cl (stereo partly drawn) [Compound 22, α-naphthyl-β-amino-(−)-pinanedioleboronate-N-] | 5 millimeters | 6 millimeters | 6.875 millimeters | 11.75 millimeters | 15.25 millimeters | 17 millimeters |  |  |  | + | + | + | + | ± | + | + | ± | + | + | − | Growth in the presence of test compound, C. albicans ([8]; 500 mg/L): ±; Growth in the presence of test compound, S. pyogenes ([9]; 5 mg/L): +; Growth in the presence of test compound, S. pyogenes ([9]; 50 mg/L): −; Growth in the presence of test compound, S. pyogenes ([9]; 500 mg/L): +; Growth in the presence of test compound, M. tuberculosis ([10]; 5 mg/L): +; Growth in the presence of test compound, M. tuberculosis ([10]; 50 mg/L): +; Growth in the presence of test compound, M. tuberculosis ([10]; 500 mg/L): −; diameter of the area which did not show any Candida growth ([11]; ATCC38247, 0.5 μg/ml): 5 millimeters; diameter of the area which did not show any Candida growth ([11]; ATCC38247, 1 μg/ml): 5.21 millimeters; diameter of the area which did not show any Candida growth ([11]; ATCC38247, 5 μg/ml): 7.43 millimeters; diameter of the area which did not show any Candida growth ([11]; ATCC38247, 10 μg/ml): 12.86 millimeters; diameter of the area which did not show any Candida growth ([11]; ATCC38247, 25 μg/ml): 17.29 millimeters; diameter of the area which did not show any Candida growth ([11]; ATCC38247, 50 μg/ml): 19.14 millimeters; diameter of the area which did not show any Candida growth ([2]; MYA576, 0.5 μg/ml): 5.33 millimeters; diameter of the area which did not show any Candida growth ([2]; MYA576, 1 μg/ml): 6.67 millimeters; diameter of the area which did not show any Candida growth ([2]; MYA576, 5 μg/ml): 10.67 millimeters; diameter of the area which did not show any Candida growth ([2]; MYA576, 10 μg/ml): 12.67 millimeters; diameter of the area which did not show any Candida growth ([2]; MYA576, 25 μg/ml): 14.33 millimeters; diameter of the area which did not show any Candida growth ([2]; MYA576, 50 μg/ml): 15.67 millimeters; lowest concentration at which activity was shown [12]: 1 µg/mL
4 | NCCCCC(N)C(=O)NC(CB(O)O)Cc1ccccc1 (stereo not shown) [Compound 34] |  |  |  |  |  |  | + | − | − | + | + | − | + | + | − | + | + | − |  |  | Growth in the presence of test compound, E. faecalis ([7]; 5 mg/L): +; Growth in the presence of test compound, E. faecalis ([7]; 50 mg/L): +; Growth in the presence of test compound, E. faecalis ([7]; 500 mg/L): −
5 | CC(B1OC2CC3CC(C3(C)C)C2(C)O1)C(Cc1ccccc1)NC(=O)C(Cc1ccccc1)NC(=O)C(N)CCCCN (stereo not shown) [Compound 36] |  |  |  |  |  |  | + | − | − | + | + | − | + | + | − | + | + | − | + | + | Growth in the presence of test compound, C. albicans ([8]; 500 mg/L): ±; Growth in the presence of test compound, S. pyogenes ([9]; 5 mg/L): +; Growth in the presence of test compound, S. pyogenes ([9]; 50 mg/L): +; Growth in the presence of test compound, S. pyogenes ([9]; 500 mg/L): −
6 | CC1(C)C2CC3OB([C@H](CCc4ccccc4)CNC(=O)[C@H](N)CCCCN)O[C@]3(C)C1C2 (stereo partly shown) [Compound 20] |  |  |  |  |  |  | + | − | − | + | + | + | + | ± | ± | + | − | ± | + | ± | Growth in the presence of test compound, C. albicans ([8]; 500 mg/L): ±; Growth in the presence of test compound, S. pyogenes ([9]; 5 mg/L): +; Growth in the presence of test compound, S. pyogenes ([9]; 50 mg/L): ±; Growth in the presence of test compound, S. pyogenes ([9]; 500 mg/L): ±
7 | OC(Cn1cncn1)(Cn1cncn1)c1ccc(F)cc1F [Fluconazole, reference compound] | 7.33 millimeters | 13.33 millimeters | 21.33 millimeters | 25.66 millimeters | 30 millimeters | 31.33 millimeters |  |  |  |  |  |  |  |  |  |  |  |  |  |  | diameter of the area which did not show any Candida growth ([11]; ATCC38247, 0.5 μg/ml): 5 millimeters; diameter of the area which did not show any Candida growth ([11]; ATCC38247, 1 μg/ml): 5 millimeters; diameter of the area which did not show any Candida growth ([11]; ATCC38247, 5 μg/ml): 5 millimeters; diameter of the area which did not show any Candida growth ([11]; ATCC38247, 10 μg/ml): 5 millimeters; diameter of the area which did not show any Candida growth ([11]; ATCC38247, 25 μg/ml): 5 millimeters; diameter of the area which did not show any Candida growth ([11]; ATCC38247, 50 μg/ml): 5 millimeters
